Reference: patent US20080014162A1, “Method to treat skin in need of a calmative using at least one C-Glycoside derivative” (L'OREAL, priority 2006, published 2008)

What was measured:
[1] = tested on: interleukin-8 secreted by normal human epidermal keratinocytes (NHEK) after stimulation with retinol; experiment: Assay of IL8 + stimulation with retinol in normal human epidermal keratinocytes (anti-irritant effect); conditions: for % blank (+retinol): IL8 as % of blank (+retinol); for IL8: 24 hours at 37° C.
Procedure: This test allows evaluation of the anti-irritant potential of various molecules, on a human keratinocyte (NHEK) cell line. In this test, an irritant situation is mimicked by exacerbating the production of IL-8 by the NHEKs by addition of retinol to the culture medium, Il-8 being involved in the initiation of keratinocyte irritation. Next, the anti-irritant effect of a C-glycoside compound is measured by means of its inhibitory action with respect to this exacerbated production.
Normal human epidermal keratinocytes are incubated in the presence of 10^−6 M retinol for 24 hours at 37° C. In response to the retinol, the production of the chemotactic agent interleukine 8 (IL-8) is measured via enzymatic assay using an assay kit (Elisa D8050) sold by the company R&D. The absorbance values are measured with a microplate reader (MRX/Dynatech) according to the procedures supplied with the assay kit.
A control test is also performed with dexamethasone, which is a reference calmative.
The results are expressed as a percentage of the control values after subtracting the background noise and as a percentage of inhibition of these values obtained in the presence of the compounds.

[2] = tested on: interleukin-8 secreted by normal human epidermal keratinocytes (NHEK); experiment: Assay of IL8 without stimulation in normal human epidermal keratinocytes; type: cell-based; conditions: concentration 2%
Source text: Dermatol., 102: 915-922 (1994)].

[3] = NHEK + 10^−6 M retinol, 24 hours, concentration 2%

Structure (SMILES) | % blank (+retinol) ([1]; NHEK + 10^−6 M retinol, 24 hours, concentration 10^−7M) [%] | IL8 ([1]; NHEK + 10^−6 M retinol, concentration 10^−7M) [pg/mL] | % blank (+retinol) [1, 3] [%] | IL8 ([1]; NHEK + 10^−6 M retinol, concentration 2%) [pg/mL] | % viability [1, 3] [%] | effect on the irritant reaction of retinol ([1]; conclusion in words from the IL8 assay in NHEK) | % blank ([2]; IL8 as % of blank) [%] | % viability [2] [%] | IL8 [2] [pg/mL]
C[C@@H]1C[C@H]2[C@@H]3CCC4=CC(=O)C=C[C@]4(C)[C@@]3(F)[C@@H](O)C[C@]2(C)[C@@]1(O)C(=O)CO [Dexamethasone, reference compound] | 57 | 117.7 |  |  |  |  |  |  | 
CC(O)C[C@@H]1OC[C@@H](O)[C@H](O)[C@H]1O (stereo partly drawn) [C-β-D-xylopyranoside-2-hydroxypropane] |  |  | 60 | 124.4 | 104 | reduces the irritant reaction of retinol | 53 | 97 | 145.2
